What all share (type): cell-based
One assay relates to Phytophthora cinnamomi. The experiment in a line: Amended agar assay (PDA), colony growth. Details: key to % control Phytophthora spp. 20 ppm: D: no control detected at this concentration; C: up to 50% control; B: from 50 to 99% control; A: a control of greater than 99%, i.e. no detectable colony growth. The settings on record: for inhibition of growth at 20 ppm / EC50: Phytophthora cinnamomi; for inhibition of growth at 20 ppm / % control Phytophthora spp. 20 ppm: 20 ppm in amended PDA, 18° C., reduction in colony growth vs control plate; for inhibition of growth at 20 ppm: read-out: % control Phytophthora spp. 20 ppm; for EC50: amended agar, 5-fold dilutions (cells without *), read-out: EC50 Phytophthora spp. The protocol:
(§1) Testing was carried out on potato dextrose agar (PDA) amended with each compound at a test concentration of 20 ppm. Amended agar was poured into three replicate 9 cm petri dishes. Each replicate dish was inoculated in the centre with a 5 mm agar plug taken from the leading edge of a culture aged between 2 and 7 days old; the age of the culture was dependant on the growth rate of the pathogen being tested. The test pathogens were Pythium ultimum and Phytophthora cinnamomi. Plates were incubated at 18° C. and the diameter of each colony measured before growth on the fastest growing plate reached the plate edge. This varied between 2 and 7 days depending on the growth rate of test pathogens. The % reduction in colony growth compared to the control plate was calculated for each pathogen. The results are provided in Table 1, in which D represents no control detected at this concentration; C represents up to 50% control; B from 50 to 99% control; and A represents a control of greater than 99%, i.e. no detectable colony growth.
(§2) Alternatively, or in addition, the same assay was conducted at descending test concentrations with 5-fold dilutions typically down to 0.032 ppm though sometimes as low as 0.00026 ppm, and an EC50 (the concentration at which 50% control would be achieved) was determined. The results are provided in Table 1 in which G represents an EC50 above 20 ppm, F represents an EC50 of 1-20 ppm and E represents and EC50 less than 1 ppm.

Another assay has as its system Pythium ultimum. Kind of assay: Amended agar assay (PDA), colony growth. Conditions: for % control Pythium ultimum 20 ppm / inhibition of growth at 20 ppm: 20 ppm in amended PDA, 18° C., reduction in colony growth vs control plate; for EC50 / inhibition of growth at 20 ppm: Globisporangium ultimum; for EC50: amended agar, 5-fold dilutions. Details: key to % control Pythium ultimum 20 ppm: D: no control detected at this concentration; C: up to 50% control; B: from 50 to 99% control; A: a control of greater than 99%, i.e. no detectable colony growth. How it is done: as §1, §2

A further assay deals with oomycete plant pathogens. The experiment in a line: Fungicidal activity testing, overall summary. Conditions: summary statement on Table 1. The protocol:
The activity of compounds of the invention was assessed by testing against certain oomycete plant pathogens and representative data are presented in Table 1.

The values that follow come from patent US11224224B2, “Thiobenzoimidazole as fungicides” (REDAG CROP PROTECTION LTD, priority 2017, dated 2022).

One may read the EC50 as the concentration that produces a half-maximal response.

Converted amounts (≈) assume the structure as drawn.

As to `Cn1nnnc1-n1c(SCc2cccc(C(=O)O)n2)nc2ccccc21` [Compound 29], the inhibition of growth at 20 ppm with Phytophthora cinnamomi is below 50%. Moreover, the “% control Pythium ultimum 20 ppm” value with Pythium ultimum is recorded as “D”.
As for `Cn1nnnc1-n1c(SCc2cnc(Cl)s2)nc2ccccc21` [Compound 30], in the assay with Phytophthora cinnamomi, the “% control Phytophthora spp. 20 ppm” value was “D” and the 50% effective concentration (EC50) is above 20 µg/mL. In addition, in the assay with Pythium ultimum, the “% control Pythium ultimum 20 ppm” value was “D” and the EC50 was above 20 µg/mL.
As to `c1ccc(CSc2nc3ccccc3n2-c2ncon2)nc1` [Compound 31], the EC50 with Phytophthora cinnamomi and with Pythium ultimum was above 20 µg/mL in each case. The compound further yielded an inhibition of growth at 20 ppm in the assay with Pythium ultimum below 50%.
Take `c1ccc(CSc2nc3ccccc3n2-c2ccccn2)nc1` [Compound 32]: the “% control Phytophthora spp. 20 ppm” value in the assay on Phytophthora cinnamomi is “D”. Moreover, in the assay with Pythium ultimum, the “% control Pythium ultimum 20 ppm” value is “D”.
Regarding `O=C(Nc1cccc(CSc2nc3ccccc3n2-c2ccccn2)n1)C(F)(F)Oc1ccccc1` [Compound 33], in the assay on Phytophthora cinnamomi, the “% control Phytophthora spp. 20 ppm” value is recorded as “D” and the EC50 is above 20 µg/mL. For the same compound, in the assay with Pythium ultimum, the “% control Pythium ultimum 20 ppm” value is reported as “D” and the EC50 was above 20 µg/mL.
On to `Cn1nnnc1-n1c(SCc2cccc(NC(=O)C(F)(F)Oc3ccccc3)n2)nc2ccccc21` [Example 1, 2,2-Difluoro-N-(6-(((1-(1-methyl-1H-tetrazol-5-yl)-1H-benzo[d]imidazol-2-yl)thio)methyl)pyridin-2-yl)-2-phenoxyacetamide], for which the “control over the pathogens tested” value in the assay on oomycete plant pathogens is reported as “good to excellent control”. In addition, in the assay on Phytophthora cinnamomi, the inhibition of growth at 20 ppm was above 99% and the EC50 is below 1 µg/mL. Further, in the assay with Pythium ultimum, the inhibition of growth at 20 ppm was above 99% and the EC50 was below 1 µg/mL.
Regarding `Cc1cccnc1-n1c(SCc2cccc(NCC(F)(F)Oc3ccccc3)n2)nc2ccccc21` [Example 4], the concentration giving a half-maximal response (EC50) with Phytophthora cinnamomi and with Pythium ultimum was 1 to 20 µg/mL (≈ 1.99 to 39.7 µM) each time.
With `Cn1nccc1-n1c(SCc2ccccn2)nc2ccccc21` [Example 5], the inhibition of growth at 20 ppm with Phytophthora cinnamomi and in the assay with Pythium ultimum was below 50% throughout.
Consider `Cc1noc(-n2c(SCc3ccccn3)nc3ccccc32)c1C` [Example 6], for which the inhibition of growth at 20 ppm in the assay with Phytophthora cinnamomi and in the assay with Pythium ultimum was 50 to 99% each time.
`Cc1cccnc1-n1c(SCc2ccccn2)nc2ccccc21` [Example 10]: the results for the inhibition of growth at 20 ppm in the assay on Phytophthora cinnamomi and in the assay on Pythium ultimum were below 50% and 50 to 99%, respectively.
With `Cc1cccc(CSc2nc3ccccc3n2-c2nnnn2C)n1` [Example 13], in the assay with Phytophthora cinnamomi, the “% control Phytophthora spp. 20 ppm” value is “D” and the EC50 is above 20 µg/mL. In the assay with Pythium ultimum, the inhibition of growth at 20 ppm is below 50% and the EC50 is above 20 µg/mL.
Take `Cc1cc(-n2c(SCc3ccccn3)nc3ccccc32)sn1` [Example 14]: the inhibition of growth at 20 ppm in the assay with Phytophthora cinnamomi and with Pythium ultimum was below 50% each time.
Regarding `c1ccc(CSc2nc3ccccc3n2-c2ccon2)nc1` [Example 15], in the assay on Phytophthora cinnamomi, the “% control Phytophthora spp. 20 ppm” value is reported as “D” and the half-maximal effective concentration (EC50) was above 20 µg/mL. In the assay with Pythium ultimum, the inhibition of growth at 20 ppm is below 50% and the EC50 is above 20 µg/mL.
Turning to `COC(=O)c1cccc(CSc2nc3ccccc3n2-c2nnnn2C)n1` [Example 18], in the assay on Phytophthora cinnamomi, the “% control Phytophthora spp. 20 ppm” value is “D”. Also, the inhibition of growth at 20 ppm in the assay with Pythium ultimum is below 50%.
For `Cn1nnnc1-n1c(SCc2cc3ccccc3cn2)nc2ccccc21` [Example 19], the inhibition of growth at 20 ppm in the assay on Phytophthora cinnamomi and in the assay on Pythium ultimum was 50 to 99% in each case.
As to `Cc1nccnc1-n1c(SCc2ccccn2)nc2ccccc21` [Example 20], in the assay on Phytophthora cinnamomi, the “% control Phytophthora spp. 20 ppm” value was “D” and the EC50 is above 20 µg/mL. In addition, in the assay on Pythium ultimum, the inhibition of growth at 20 ppm was below 50% and the EC50 was above 20 µg/mL.
As to `COC(=O)CSc1nc2ccccc2n1-c1nnnn1C` [Example 24], the results for the inhibition of growth at 20 ppm in the assay on Phytophthora cinnamomi and with Pythium ultimum were 50 to 99% and below 50%, respectively.
Take `COC(=O)c1cccc(CSc2nc3ccccc3n2-c2ncccc2C)n1` [Example 46]: the inhibition of growth at 20 ppm in the assay on Phytophthora cinnamomi was below 50%. For the same compound, in the assay on Pythium ultimum, the “% control Pythium ultimum 20 ppm” value is listed as “D”.
